Data from patent US20090082322A1, “Gender Differences in Experimental Aortic Aneurysm Formation” (THE REGENTS OF THE UNIVERSITY OF MICHIGAN, priority 2004, published 2009).

Tests used:
[1] = system: MMP-2; experiment: MMP-2 activity in media of IL-1β stimulated aortic explants from pre-treated male rats; format: in vivo, rat
Protocol: Experiment III: Male rats underwent sustained 17-β-estradiol exposure using extended-release, subcutaneously implanted pellets prior to sacrifice and aortic explanation. The explants were stimulated with IL-1β, and MMP-2 activity in the conditioned media was then determined.

[2] = system: MMP-9; experiment: MMP-9 activity (gelatin zymography) in media of IL-1β stimulated male RASMCs; format: cell-based, Sprague-Dawley rats; conditions: 10^−10 to 10^−6 mol/L, 48 hours with concurrent IL-1β stimulation
Protocol: Experimental interventions were carried out with confluent RASMCs at passages 3 through 8 in serum-free DMEM supplemented with antibiotics. Confluent monolayers of RASMCs were incubated in T-75 plates with IL-1β (2 ng/mL, from Sigma) for 72 hours. This concentration of IL-1β is found in human aortic aneurysms. After 72 hours of IL-1β stimulation, the RASMC-conditioned medium was collected for measurements of TIMP-1 activity, MMP-9 activity, and MMP-9 protein levels. The remaining SMCs were lysed in 1% sodium dodecyl sulfate (SDS), and total cellular protein was determined by a bicinchoninic acid protein assay (Pierce). In separate experiments, the previous protocol was followed, but male RASMCs were incubated with 5 different concentrations of 17-β-estradiol (1×10^−10 to 1×10^−6 mol/L) for 48 hours with concurrent IL-1β stimulation. Zymography supplies were purchased from Novex. MMP distribution after treatment of RASMC with IL-1β and increasing concentrations of 17-β-estradiol was determined. Gelatin substrate zymograms were prepared using precast 10% SDS-polyacrylamide gels containing 1 mg/mL of gelatin. Equal volumes of experimental media samples were diluted into 2× tris-glycine SDS sample buffer and electrophoretically separated under nonreducing conditions. […]

[3] = system: elastase-perfused infrarenal abdominal aorta of male rats; experiment: Elastase perfusion aneurysm model after estrogen pellet implantation, aortic diameter; format: in vivo, Sprague-Dawley rats; conditions: 0.1-mg 21-day slow-release pellet s.c.
Protocol: Pancreatic porcine elastase perfusion of the rat aortas was performed as described previously. (Anidjar S, et al., Circulation, 82:973-981 (1990)). Male and female rats (n=15, each) were anesthetized with 2-2.5% isoflurane inhalation, and the infrarenal abdominal aorta was isolated under sterile conditions. Digital video micrometry was performed to directly measure outer aortic diameter. Specifically, images of the aorta were obtained using a Spot Insight Color Optical Camera (Diagnostic Instruments, Sterling Heights, Mich.) attached to an operating microscope (Nikon, Melville, N.Y.). Aortic diameters were then measured at the level of the left renal vein, the mid-infrarenal aorta, and the aortic bifurcation in triplicate using Image Pro Express software (Media Cybernetics, Inc, Silver Spring, Md.). Temporary proximal and distal aortic control was obtained using temporary 4-0 cotton suture loops, following which an aortotomy was made near the aortic bifurcation with a 30-gauge needle. […] At 7 or 14 days, aortas were re-exposed and aortic diameters were re-measured in vivo. […] The infrarenal aorta was then removed and subjected to histological study, immunohistochemistry, and quantitative polymerase chain reaction (PCR). […]

[4] = system: MMP-2; experiment: MMP-2 activity in conditioned media of IL-1β stimulated male RASMCs; format: cell-based, rat; conditions: 1×10^−10 to 1×10^−6 molar, with IL-1β
Protocol: Experiment I: Adult male and female rat aortic smooth muscle cells (RASMCs) were grown in Dulbecco's modified Eagle medium (DMEM) with 10% fetal bovine serum (FBS). RASMCs at passages four through eight were stimulated in serum-free media for 48 hours with IL-1β at doses encountered in human aortic aneurysms (2 ng/mL). The culture media was collected, and mRNA was extracted from the RASMCs. After reverse transcription to cDNA, gene expression of MMP-2 and TIMP-2 (a major MMP-2 inhibitor) was measured by real-time polymerase chain reaction. MMP-2 protein levels in conditioned media were measured by Western blotting, with MMP-2 and TIMP-2 activity quantified by standard and reverse gelatin zymography. Experiment II: Male RASMCs were incubated in DMEM containing 17-β-estradiol and IL-1β, MMP-2 activity in the conditioned media was then determined.

## C[C@]12CC[C@@H]3c4ccc(O)cc4CC[C@H]3[C@@H]1CC[C@@H]2O [17-β-estradiol]
[1]; male rats pre-treated with extended-release s.c. pellets, explants stimulated with IL-1β, control 4.35×10^5, P=0.002
  MMP-2 activity in the media of whole-aortic explants: 2.0×10^5 O.D./mg protein
[1]; male rats pre-treated, vs control
  decrease in MMP-2 activity in the media of whole-aortic explants: 2 fold
[2]
  MMP-9 activity in male RASMC media: no difference
[3]; 7 days after elastase perfusion, sham 197%±39%, P=0.010
  aortic expansion (increase in aortic diameter): 124%±19
[3]; 14 days after elastase perfusion, sham 538%±105, P=0.0226
  aneurysm size (increase in aortic diameter): 241%±57
[4]
  MMP-2 activity in male RASMCs: not altered
